The values below come from patent publication US20060128675A1, “Method for monitoring the effectiveness of teracycline in the treatment of asthma” (priority 2002, published 2006).

For data set [1], the system named is IgE production by stimulated PBMC from asthmatic subjects. Description: IgE production in vitro by anti-CD40 mAb + rhIL-4 stimulated PBMC from asthmatic subjects (IgE ELISA of supernatants). The format is cell-based, human. The following applies: 10 day culture; for IgE: anti-CD40 mAb 1 ug/ml + rhIL-4 200 U/ml, ± SE, 5 asthmatic subjects; for inhibition at 0.1 µg/mL / inhibition at 1 µg/mL / inhibition at 10 µg/mL: Homo sapiens, PBMC, 240 h, versus anti-CD40 + rhIL-4 without treatment. How it is done:
(§1) PBMC were separated from blood on a Ficoll-Paque (Pharmacia, Piscataway, N.J.) gradient (density 1.077). The PBMC were carefully removed using a transfer pipette (VWR Scientific, San Francisco, Calif.). Cells were washed twice in RPMI-1640 medium (GIBCO/BRL, Grand Island, N.Y.), resuspended in RPMI (3 ml), and counted on a hemocytometer (Fisher Scientific, Springfield, N.J.). Viability was >98%, as judged by trypan blue exclusion.
Studies of IgE responses induced in vitro were carried out according to the method of Sampson and Buckley in J. Immunol 1981, 127: 829-834. Briefly, PBMC (1.5×10^6 in 1 ml) were cultured +anti-CD40 mAb (1 ug/ml) (BD Pharmingen, San Diego, Calif.), ± recombinant human interleukin-4 (rhIL-4) (200 U/ml) (Genzyme Corp., Boston, Mass.), in the presence or absence of varying concentrations of either minocycline (Lederle Parenterals Inc., Carolina, Puerto Rico) or doxycycline (American Pharmaceutical Partner Inc., Schaumburg, Ill.), 0.1, 1.0, 10 ug/ml) for 0, 3, and 10 days at 37° C. in complete medium in a humidified 4% CO2 atmosphere. Cell viability was >98%, as judged by trypan blue exclusion, on day 10.
Antibiotics were reconstituted in sterile dH2O, according to manufacturer's recommendations. Complete medium contained RPMI-1640 (Fisher Scientific) and was supplemented with N-2-hydroxyethylpiperazine-N′-2-ethanesulfonic acid buffer (HEPES) (25 mM) (Fisher Scientific), penicillin (100 U/ml) (GIBCO/BRL), streptomycin (100 ug/ml) (Eli Lilly and Co., Indianapolis, Ind.), L-glutamine (2 mM) (GIBCO/BRL), and 10% Fetal Calf Serum (FCS) (GIB CO/BRL). The concentration of rhIL-4 in culture was within 1 bog of physiologic relevance (<100 U/ml), according to bioassay data provided by supplier.
For the in vitro quantitative determination of IgE content in cell culture supernatants, solid phase sandwich enzyme linked immunosorbent assays (ELISAs) were performed using IgE ELISA Test Kits (Abexon Trend, Ramsey, Minn.). All ELISAs were performed according to the manufacturer's recommended procedure. Specimens were analyzed in duplicate and a standard curve was derived from known concentrations of IgE. Plates were read using an automated microplate reader (Model ELX800) (Bio-Tek Instruments, Inc., Winooski, Vt.), with a 450-nm measurement filter. Optical densities were converted to IU/ml and/or ng/ml. (1 IU=2.4 ng/IgE protein).

For data set [2], the system named is IgE production by PBMC from non asthmatic subjects. Put plainly: IgE production in vitro by anti-CD40 mAb + rhIL-4 stimulated PBMC from non asthmatic subjects. It counts as cell-based, human. Conditions: anti-CD40/rhIL-4. On the procedure:
as §1
Studies of IgE responses induced in vitro were carried out according to the method of Sampson and Buckley in J. Immunol 1981, 127: 829-834. […]
For the in vitro quantitative determination of IgE content in cell culture supernatants, solid phase sandwich enzyme linked immunosorbent assays (ELISAs) were performed using IgE ELISA Test Kits (Abexon Trend, Ramsey, Minn.). […] Specimens were analyzed in duplicate and a standard curve was derived from known concentrations of IgE. Plates were read using an automated microplate reader (Model ELX800) (Bio-Tek Instruments, Inc., Winooski, Vt.), with a 450-nm measurement filter. […]

Data set [3] deals with rheumatoid arthritis (RA) patients. Conditions: mild and moderate RA patients; cited from earlier work.

For `C[C@H]1c2cccc(O)c2C(=O)C2=C(O)[C@]3(O)C(=O)C(C(N)=O)=C(O)[C@@H](N(C)C)[C@@H]3[C@@H](O)[C@@H]21` [doxycycline], in data set [1] (0.1 ug/ml), the “IgE” value was 20 ± 9 ng/mL and the inhibition at 0.1 µg/mL was found to be 29%. Moreover, in data set [1] (1.0 ug/ml), the “IgE” value was 14 ± 7 ng/mL and the inhibition at 1 µg/mL turned out to be 50%. Besides, in data set [1] (10 ug/ml), the “IgE” value was determined as 5 ± 2 ng/mL and the inhibition at 10 µg/mL turned out to be 83%. In addition, in data set [2], the “effect on IgE responses of PBMC of non asthmatic donors” value was “no effect”.

Turning to `CN(C)c1ccc(O)c2c1C[C@H]1C[C@H]3[C@H](N(C)C)C(O)=C(C(N)=O)C(=O)[C@@]3(O)C(O)=C1C2=O` [minocycline], in data set [1] (0.1 ug/ml), the “IgE” value came out at 16 ± 5 ng/mL and the inhibition at 0.1 µg/mL came to 43%. Also, in data set [1] (1.0 ug/ml), the “IgE” value was 18 ± 7 ng/mL and the inhibition at 1 µg/mL worked out at 36%. In addition, in data set [1] (10 ug/ml), the “IgE” value stood at 5 ± 2 ng/mL and the inhibition at 10 µg/mL stood at 83%. Moreover, in data set [2], the “effect on IgE responses of PBMC of non asthmatic donors” value is “no effect”. Besides, the side effects result in data set [3] was “no side effects”.
